According to US20240050428A1 (Cullgen (Shanghai), Inc., priority 2020, published 2024):
Like-named read-outs stand apart in the source and are kept apart here.

Columns and labels:
[1] = test system: MOLM-13 cells; experiment: Cell viability assay (CellTiter-Glo) in MOLM-13 cells, alone or with gilteritinib; assay type: cell-based; conditions: Homo sapiens
[2] = test system: MV4;11 cells; experiment: Cell viability assay (CellTiter-Glo) in MV4;11 cells, alone or with gilteritinib; assay type: cell-based; conditions: Homo sapiens, read-out: MV4
[3] = 72 h, MOLM-13 cells, compound alone (without gilteritinib), three days, CellTiter-Glo, read-out: MOLM-13 IC50
[4] = 72 h, MOLM-13 cells, compound with gilteritinib 20 nM, three days, CellTiter-Glo, read-out: MOLM-13 IC50 gilteritinib
[5] = 72 h, MV4;11 cells, compound alone (without gilteritinib), three days, CellTiter-Glo, 11 IC50
[6] = 72 h, MV4;11 cells, compound with gilteritinib 10 nM, three days, CellTiter-Glo, 11 IC50 gilteritinib
[7] = MOLM-13, 72 h, MOLM-13 cells, compound alone (without gilteritinib), three days, CellTiter-Glo, read-out: MOLM-13 IC50
[8] = MOLM-13, 72 h, MOLM-13 cells, compound with gilteritinib 20 nM, three days, CellTiter-Glo, read-out: MOLM-13 IC50 gilteritinib
[9] = MV4-11, 72 h, MV4;11 cells, compound alone (without gilteritinib), three days, CellTiter-Glo, 11 IC50
[10] = MV4-11, 72 h, MV4;11 cells, compound with gilteritinib 10 nM, three days, CellTiter-Glo, 11 IC50 gilteritinib

Compound | IC50 [1, 7] [nM] | IC50 [1, 8] [nM] | IC50 [2, 9] [nM] | IC50 [2, 10] [nM] | other results
O=C1CCC(N2C(=O)c3ccc(NCCCc4cccc(N5CCC(c6ccccc6)CC5)c4F)cc3C2=O)C(=O)N1 (stereo not drawn) [GS-507, 2-(2,6-Dioxopiperidin-3-yl)-5-((3-(2-fluoro-3-(4-phenylpiperidin-1-yl)phenyl)propyl)amino)isoindoline-1,3-dione] |  |  |  |  | IC50 [1, 3]: > 1000 nM; IC50 [1, 4]: 10 to 100 nM; IC50 [2, 5]: > 1000 nM; IC50 [2, 6]: 100 to 1000 nM
O=C1CCC(N2Cc3c(CNC(=O)c4cccc(N5CCC(n6cc(-c7cnc8ccccc8n7)cn6)CC5)c4)cccc3C2=O)C(=O)N1 (stereo not drawn) [GS-509, N-((2-(2,6-Dioxopiperidin-3-yl)-1-oxoisoindolin-4-yl)methyl)-3-(4-(4-(quinoxalin-2-yl)-1H-pyrazol-1-yl)piperidin-1-yl)benzamide] |  |  |  |  | IC50 ([1]; MOLM-13, 72 h, read-out: MOLM-13 IC50): < 10 nM; IC50 ([1]; MOLM-13, 72 h, read-out: MOLM-13 IC50 gilteritinib): < 10 nM; IC50 ([2]; MV4-11, 72 h, 11 IC50): < 10 nM; IC50 ([2]; MV4-11, 72 h, 11 IC50 gilteritinib): < 10 nM
Cc1nn(CCCCCCNc2ccc3c(c2)C(=O)N(C2CCC(=O)NC2=O)C3=O)c(C)c1-c1cnc2ccccc2n1 (stereo not drawn) [GS-510, 5-((6-(3,5-Dimethyl-4-(quinoxalin-2-yl)-1H-pyrazol-1-yl)hexyl)amino)-2-(2,6-dioxopiperidin-3-yl)isoindoline-1,3-dione] | > 1000 | < 10 | 100 to 1000 | < 10 | 
Cc1cccc2ncc(-c3cnn(CCCCCCNc4ccc5c(c4)C(=O)N(C4CCC(=O)NC4=O)C5=O)c3)nc12 (stereo not drawn) [GS-511, 2-(2,6-Dioxopiperidin-3-yl)-5-((6-(4-(8-methylquinoxalin-2-yl)-1H-pyrazol-1-yl)hexyl)amino)isoindoline-1,3-dione] | 100 to 1000 | < 10 | 100 to 1000 | 10 to 100 | 
Cc1cccc2nc(-c3cnn(CCCCCCNc4ccc5c(c4)C(=O)N(C4CCC(=O)NC4=O)C5=O)c3)cnc12 (stereo not drawn) [GS-512, 2-(2,6-dioxopiperidin-3-yl)-5-((6-(4-(5-methylquinoxalin-2-yl)-1H-pyrazol-1-yl)hexyl)amino)isoindoline-1,3-dione] | 10 to 100 | < 10 | 10 to 100 | 10 to 100 | 
O=C1CCC(N2Cc3cc(NC(=O)c4cccc(N5CCC(n6cc(-c7cnc8ccccc8n7)cn6)CC5)c4)ccc3C2=O)C(=O)N1 (stereo not drawn) [GS-513, N-(2-(2,6-Dioxopiperidin-3-yl)-1-oxoisoindolin-5-yl)-3-(4-(4-(quinoxalin-2-yl)-1H-pyrazol-1-yl)piperidin-1-yl)benzamide] | < 10 | < 10 | < 10 | < 10 | 
O=C1CCC(N2Cc3cc(CNC(=O)Nc4cccc(N5CCC(c6ccccc6)CC5)c4)ccc3C2=O)C(=O)N1 (stereo not drawn) [GS-514, 1-((2-(2,6-Dioxopiperidin-3-yl)-1-oxoisoindolin-5-yl)methyl)-3-(3-(4-phenylpiperidin-1-yl)phenyl)urea] |  |  |  |  | IC50 [1, 3]: < 10 nM; IC50 [1, 4]: < 10 nM; IC50 [2, 5]: < 10 nM; IC50 [2, 6]: < 10 nM
O=C1CCC(N2Cc3cc(NCCCCC(=O)N4CCC(n5cc(-c6cnc7ccccc7n6)cn5)CC4)ccc3C2=O)C(=O)N1 (stereo not drawn) [GS-515, 3-(1-Oxo-5-((5-oxo-5-(4-(4-(quinoxalin-2-yl)-1H-pyrazol-1-yl)piperidin-1-yl)pentyl)amino)isoindolin-2-yl)piperidine-2,6-dione] | > 1000 | 100 to 1000 | > 1000 | 10 to 100 | 
Cc1ccccc1-c1cnn(CCCCCCNc2ccc3c(c2)C(=O)N(C2CCC(=O)NC2=O)C3=O)c1 (stereo not drawn) [GS-516, 2-(2,6-Dioxopiperidin-3-yl)-5-((6-(4-(o-tolyl)-1H-pyrazol-1-yl)hexyl)amino)isoindoline-1,3-dione] | > 1000 | 10 to 100 | 100 to 1000 | 10 to 100 | 
O=C1CCC(N2C(=O)c3ccc(NCCCCCCn4cc(-c5cnc6cc(Br)ccc6n5)cn4)cc3C2=O)C(=O)N1 (stereo not drawn) [GS-517, 5-((6-(4-(6-Bromoquinoxalin-2-yl)-1H-pyrazol-1-yl)hexyl)amino)-2-(2,6-dioxopiperidin-3-yl)isoindoline-1,3-dione] | 100 to 1000 | 10 to 100 | 100 to 1000 | 10 to 100 | 
O=C(CCC(F)(F)C(=O)N1CCC(n2cc(-c3cnc4ccccc4n3)cn2)CC1)NCc1ccc2c(c1)CN(C1CCC(=O)NC1=O)C2=O (stereo not drawn) [GS-518, N-((2-(2,6-Dioxopiperidin-3-yl)-1-oxoisoindolin-5-yl)methyl)-4,4-difluoro-5-oxo-5-(4-(4-(quinoxalin-2-yl)-1H-pyrazol-1-yl)piperidin-1-yl)pentanamide] | 100 to 1000 | < 10 | 10 to 100 | < 10 | 
O=C1CCC(N2Cc3ccc(NCCCCCn4cc(-c5cnc6ccccc6n5)cn4)cc3C2=O)C(=O)N1 (stereo not drawn) [GS-519, 3-(1-Oxo-6-((5-(4-(quinoxalin-2-yl)-1H-pyrazol-1-yl)pentyl)amino)isoindolin-2-yl)piperidine-2,6-dione] | > 1000 | > 1000 | > 1000 | > 1000 | 
O=C1CCC(N2C(=O)c3ccc(NCCCCC(F)(F)C(=O)N4CCC(n5cc(-c6cnc7ccccc7n6)cn5)CC4)cc3C2=O)C(=O)N1 (stereo not drawn) [GS-520, 5-((5,5-difluoro-6-oxo-6-(4-(4-(quinoxalin-2-yl)-1H-pyrazol-1-yl)piperidin-1-yl)hexyl)amino)-2-(2,6-dioxopiperidin-3-yl)isoindoline-1,3-dione] | < 10 | < 10 | < 10 | < 10 | 
O=C1CCC(N2C(=O)c3ccc(NCCCCCCn4cc(-c5nc6ccccc6nc5C(F)(F)F)cn4)cc3C2=O)C(=O)N1 (stereo not drawn) [GS-522, 2-(2,6-Dioxopiperidin-3-yl)-5-((6-(4-(3-(trifluoromethyl)quinoxalin-2-yl)-1H-pyrazol-1-yl)hexyl)amino)isoindoline-1,3-dione] | > 1000 | < 10 | 100 to 1000 | 10 to 100 | 
CC(C)c1nc2ccccc2nc1-c1cnn(CCCCCCNc2ccc3c(c2)C(=O)N(C2CCC(=O)NC2=O)C3=O)c1 (stereo not drawn) [GS-523, 2-(2,6-Dioxopiperidin-3-yl)-5-((6-(4-(3-isopropylquinoxalin-2-yl)-1H-pyrazol-1-yl)hexyl)amino)isoindoline-1,3-dione] |  |  |  |  | IC50 [1, 3]: > 1000 nM; IC50 [1, 4]: 100 to 1000 nM; IC50 [2, 5]: > 1000 nM; IC50 [2, 6]: 100 to 1000 nM
O=C1CCC(N2C(=O)c3ccc(NC4CC(n5cc(-c6cnc7ccccc7n6)cn5)C4)cc3C2=O)C(=O)N1 (stereo not drawn) [GS-524, 2-(2,6-Dioxopiperidin-3-yl)-5-((3-(4-(quinoxalin-2-yl)-1H-pyrazol-1-yl)cyclobutyl)amino)isoindoline-1,3-dione] | > 1000 | 10 to 100 | 100 to 1000 | 100 to 1000 | 
O=C1CCC(N2C(=O)c3ccc(NCCCCCC(=O)N4CCC(n5cc(-c6cnc7ccc(C8=CCNCC8)cc7n6)cn5)CC4)cc3C2=O)C(=O)N1 (stereo not drawn) [GS-525, 2-(2,6-Dioxopiperidin-3-yl)-5-((6-oxo-6-(4-(4-(7-(1,2,3,6-tetrahydropyridin-4-yl)quinoxalin-2-yl)-1H-pyrazol-1-yl)piperidin-1-yl)hexyl)amino)isoindoline-1,3-dione] | 10 to 100 | < 10 | < 10 | < 10 | 
O=C1CCC(N2C(=O)c3ccc(NCCCCCC(=O)N4CCC(n5cc(-c6cnc7ccc(N8CCNCC8)cc7n6)cn5)CC4)cc3C2=O)C(=O)N1 (stereo not drawn) [GS-526, 2-(2,6-Dioxopiperidin-3-yl)-5-((6-oxo-6-(4-(4-(7-(piperazin-1-yl)quinoxalin-2-yl)-1H-pyrazol-1-yl)piperidin-1-yl)hexyl)amino)isoindoline-1,3-dione] | < 10 | < 10 | < 10 | < 10 | 
